Publication PMC5874726, “Comparison Study of Two Differently Clicked ^18F-Folates—Lipophilicity Plays a Key Role” (Pharmaceuticals, 2018)
Where two headings read alike, the source gives them in different places.

What was measured:
[1] = tested on: healthy balb/c mice; assay: Ex vivo biodistribution in healthy balb/c mice
Text: (§1) All animal experiments were approved by the local ethical committee (permission no. 23177-07/G15-1-033). Balb/c and balb/c nude (Balb/c AnNRj-Foxn1nu) mice were kept on a folate-deficient rodent diet to reduce their blood level of folate to one found in humans. After 7 days of acclimatization, human KB tumor cells (2.5 x 10^6 cells in PBS) were inoculated in the right shoulder of each balb/c nude mouse. All in vivo treatments and imaging experiments were done under isoflurane anesthesia. Eleven or twelve days after inoculation, animals were intravenously injected with ^18F-DBCO-Folate and ^18F-Ala-Folate (5–8 MBq, 100–200 µL) via a lateral tail vein. […] PET/MRI-studies were performed on a nanoScan PET/MRI (Mediso, Budapest, Hungary). First MRI scans (Material Map for co-registration of the PET scan; 3D; GRE-EXT, FOV; slice thickness: 0.6 mm; TE: 2 ms; TR: 15 ms; flip angle: 25 deg) were acquired and then either a dynamic scan over 60 min starting with injection of the radiotracer or a static scan for 10 min after 50 min p.i. were performed. All mice, which underwent ex vivo biodistribution, were scanned first. Afterwards co-registered PET/MR images were analyzed via PMOD (version 3.6) and Inveon Research Workplace (version 4.2). For ex vivo biodistribution studies mice were euthanized 60 min p.i. and organs of interest were dissected, weighed, and measured in a γ-counter (PerkinElmer 2470 Wizard2, Perkin Elmer, Rodgau, Germany). The incorporated radioactivity was expressed as percentage of injected dose per gram of tissue (% ID/g).

[2] = tested on: FR-negative OC316 cells; assay: Internalization studies in FR-negative OC316 cells; format: cell-based, human; settings: blocked KB cells and FR-negative OC316 cells
Method: (§2) Two different temperatures (4 °C for receptor binding, 37 °C for receptor binding and internalization) and two different concentrations were assessed. […] Both radiofolates show a concentration as well as temperature depended increase of activity in the FR positive cells. […] This effect is not fully understood, but we presume the high lipophilicity in combination with the increased concentration being responsible for this high non-specific binding. […] Thus, about 90% of ^18F-DBCO-folate remained in solution, which is ideal for such a radiotracer assay set-up (see supporting information for pie chart of activity distribution, Figure S6). For ^18F-Ala-folate the overall receptor-bound and internalized fractions are similar to ^18F-DBCO-folate (see supporting information for pie chart of activity distribution, Figure S7).
As folate-receptor positive control, KB cells (derived from human cervical carcinoma; obtained from German Collection of Microorganisms and Cell Cultures), and OC316 cells (derived from human ovarian adenocarcinoma) as negative control were used. For FACS analysis, data of both cell lines see supporting information Figure S5. The cells were cultured in folate deficient RPMI 1640 medium containing 10% FCS, 1% penicillin-streptomycin and HEPES buffer (10 mM, 5 mL) grown at 37 °C in a humidified atmosphere containing 5% CO2. […]

[3] = tested on: KB tumor-bearing mice; assay: µPET imaging in KB tumor-bearing mice; format: in vivo, mouse; settings: for visualization of KB tumors in maximum intensity projection (MIP) PET images: static scan 50-60 min p.i.
Text: as §1

[4] = tested on: KB-tumor bearing mice; assay: Ex vivo biodistribution in KB-tumor bearing mice; settings: for tumor/liver ratio: liver including gallbladder
Text: as §1

[5] = LogD at pH 7.4 via shake-flask method (octanol/PBS); format: physicochemical; settings: pH 7.4, shake-flask
Method: The lipophilicity was determined by shake flask method in an octanol/PBS mixture. Table 1 gives an overview of logD values for ^18F-Alakyne and ^18F-Ala-folate as well as for ^18F-DBCO and ^18F-DBCO-folate. […] The reduced lipophilicity is expected to be an indicator for less non-specific background signals and a higher renal clearance rate.

[6] = Stability in human serum albumin at 37 °C; settings: 2 h
Method: The in vitro stability was assessed in human serum albumin at 37 °C.
For testing the stability, 200 µL of ^18F-DBCO-folate or ^18F-Ala-folate (ca. 4 MBq) were incubated at 37 °C in 500 µL human serum albumin. After predetermined time points plasma proteins were precipitated with 600 µL ice-cold acetonitrile followed by centrifugation (10,000 rpm, 10 min). An aliquot of the supernatant was injected into an analytical radio-HPLC.

[7] = parameters: method as in doi:10.1039/C5MD00508F; settings: pH 7.4, shake-flask; cited from earlier work
[8] = tested on: FR-positive KB cells; assay: Internalization studies in FR-positive KB cells; format: cell-based, human; settings: 5 nM, 37 °C, 1 h
Method: as §2
As folate-receptor positive control, KB cells (derived from human cervical carcinoma; obtained from German Collection of Microorganisms and Cell Cultures), and OC316 cells (derived from human ovarian adenocarcinoma) as negative control were used. For FACS analysis, data of both cell lines see supporting information Figure S5. The cells were cultured in folate deficient RPMI 1640 medium containing 10% FCS, 1% penicillin-streptomycin and HEPES buffer (10 mM, 5 mL) grown at 37 °C in a humidified atmosphere containing 5% CO2. […] To determine the internalized fraction of both new ^18F-folate derivatives, different concentrations (1 and 5 nM) of the labeled agents were incubated with one million KB or OC316 cells at 4 °C and 37 °C. […] After 1h, the supernatant was removed, cells washed with PBS and with an acetate buffer (pH 3).

[9] = balb/c nude (Balb/c AnNRj-Foxn1nu), mouse, in vivo, 60 min
[10] = healthy balb/c mice, 60 min p.i.
[11] = healthy balb/c mice, 60 min p.i., blocked with 100 µg native folic acid
[12] = KB xenograft mice, 60 min p.i., blockade with 100 µg native folic acid

## Nc1nc2ncc(CNc3ccc(C(=O)NC(CCC(=O)NCCOCCOCCOCCn4cc(CNC(C[18F])C(=O)O)nn4)C(=O)O)cc3)nc2c(=O)[nH]1 (centres unmarked) [^18F-Ala-folate]
[1]; Balb/c, mouse, in vivo, 60 min
  uptake Appendix: 0.20 ± 0.11 %ID/g tissue
  uptake Blood: 0.29 ± 0.29 %ID/g tissue
  uptake Heart: 0.32 ± 0.21 %ID/g tissue
  uptake Inguinal lymph nodes: 0.93 ± 0.67 %ID/g tissue
  uptake Intestines (empty): 1.67 ± 1.12 %ID/g tissue
  uptake Left kidney: 19.90 ± 8.63 %ID/g tissue
  uptake Liver: 1.51 ± 1.26 %ID/g tissue
  uptake Lung: 0.36 ± 0.16 %ID/g tissue
  uptake Muscle: 0.26 ± 0.13 %ID/g tissue
  uptake Pancreas: 0.33 ± 0.20 %ID/g tissue
  uptake Right kidney: 20.55 ± 9.71 %ID/g tissue
  uptake Spleen: 0.15 ± 0.09 %ID/g tissue
  uptake Stomach (empty): 0.71 ± 0.24 %ID/g tissue
[2]
  non-specific binding: lower non-specific binding
[3]
  visualization of KB tumors in maximum intensity projection (MIP) PET images: displayed the KB-tumor in the MIP
[4]; 60 min p.i.
  tumor/blood ratio: 10.11
  tumor/kidney ratio: 0.12
  tumor/muscle ratio: 7.64
  tumor/liver ratio: 0.98
[4]; [9]
  reduction of activity in the tumor in the blocked group: 85%
  tumor uptake relative to ^18F-DBCO-folate: 3 times
  uptake Appendix: 0.39 ± 0.22 %ID/g tissue
  uptake Blood: 0.17 ± 0.05 %ID/g tissue
  uptake Heart: 0.22 ± 0.09 %ID/g tissue
  uptake Inguinal lymph nodes: 0.57 ± 0.15 %ID/g tissue
  uptake Intestines (empty): 3.42 ± 2.18 %ID/g tissue
  uptake Left kidney: 14.49 ± 3.42 %ID/g tissue
  uptake Liver: 1.71 ± 1.02 %ID/g tissue
  uptake Lung: 0.28 ± 0.05 %ID/g tissue
  uptake Muscle: 0.22 ± 0.02 %ID/g tissue
  uptake Pancreas: 0.26 ± 0.11 %ID/g tissue
  uptake Right kidney: 14.27 ± 3.35 %ID/g tissue
  uptake Spleen: 0.16 ± 0.04 %ID/g tissue
  uptake Stomach (empty): 0.95 ± 0.50 %ID/g tissue
  uptake Tumor: 1.68 ± 0.13 %ID/g tissue

## C#CCNC(C[18F])C(=O)O (centres unmarked) [^18F-Alakyne]
[5]
  logD7.4 Value: −1.18 ± 0.03

## Nc1nc2ncc(CNc3ccc(C(=O)NC(CCC(=O)NCCOCCOCCOCCn4nnc5c4-c4ccccc4CN(C(=O)CCNC(=O)CCOCCOCCOCC[18F])c4ccccc4-5)C(=O)O)cc3)nc2c(=O)[nH]1 (centres unmarked) [^18F-DBCO-folate]
[1]; [10]
  uptake Blood: 0.08 ± 0.01 %ID/g tissue
  uptake Heart: 0.09 ± 0.01 %ID/g tissue
  uptake Inguinal lymph nodes: 0.18 ± 0.08 %ID/g tissue
  uptake Intestines (empty): 0.87 ± 0.57 %ID/g tissue
  uptake Left kidney: 3.90 ± 0.38 %ID/g tissue
  uptake Liver: 0.24 ± 0.02 %ID/g tissue
  uptake Lung: 0.35 ± 0.27 %ID/g tissue
  uptake Muscle: 0.06 ± 0.01 %ID/g tissue
  uptake Pancreas: 0.08 ± 0.01 %ID/g tissue
  uptake Right kidney: 3.99 ± 0.37 %ID/g tissue
  uptake Spleen: 0.07 ± 0.02 %ID/g tissue
[1]; [11]
  uptake Blood: 0.12 ± 0.05 %ID/g tissue
  uptake Heart: 0.11 ± 0.06 %ID/g tissue
  uptake Inguinal lymph nodes: 0.10 ± 0.08 %ID/g tissue
  uptake Intestines (empty): 0.33 ± 0.22 %ID/g tissue
  uptake Left kidney: 0.40 ± 0.07 %ID/g tissue
  uptake Liver: 0.33 ± 0.08 %ID/g tissue
  uptake Lung: 0.36 ± 0.11 %ID/g tissue
  uptake Muscle: 0.07 ± 0.05 %ID/g tissue
  uptake Pancreas: 0.09 ± 0.05 %ID/g tissue
  uptake Right kidney: 0.38 ± 0.07 %ID/g tissue
  uptake Spleen: 0.11 ± 0.06 %ID/g tissue
[6]
  still intact after incubation: > 90%
[2]
  non-specific binding: distinct non-specific binding
[3]; PET
  uptake in the bones (in vivo defluorination): Negligible uptake
[3]
  visualization of KB tumors in maximum intensity projection (MIP) PET images: impeded
[4]; 60 min p.i.
  tumor/blood ratio: 5.61
  tumor/muscle ratio: 6.86
  tumor/liver ratio: 2.58
[4]; KB xenograft mice, 60 min p.i.
  uptake Appendix: 0.13 ± 0.02 %ID/g tissue
  uptake Blood: 0.09 ± 0.04 %ID/g tissue
  uptake Heart: 0.08 ± 0.02 %ID/g tissue
  uptake Inguinal lymph nodes: 0.48 ± 0.14 %ID/g tissue
  uptake Intestines (empty): 0.42 ± 0.52 %ID/g tissue
  uptake Left kidney: 4.83 ± 0.90 %ID/g tissue
  uptake Liver: 0.18 ± 0.07 %ID/g tissue
  uptake Lung: 0.17 ±0.06 %ID/g tissue
  uptake Muscle: 0.07 ± 0.01 %ID/g tissue
  uptake Pancreas: 0.07 ±0.01 %ID/g tissue
  uptake Right kidney: 4.76 ± 0.89 %ID/g tissue
  uptake Spleen: 0.06 ± 0.02 %ID/g tissue
  uptake Stomach (empty): 0.82 ± 0.64 %ID/g tissue
  uptake Tumor: 0.48 ± 0.14 %ID/g tissue
[4]; [12]
  uptake Appendix: 0.07 ± 0.01 %ID/g tissue
  uptake Blood: 0.06 ± 0.04 %ID/g tissue
  uptake Heart: 0.04 ± 0.02 %ID/g tissue
  uptake Inguinal lymph nodes: 0.04 ± 0.02 %ID/g tissue
  uptake Intestines (empty): 0.56 ± 0.81 %ID/g tissue
  uptake Left kidney: 0.30 ± 0.04 %ID/g tissue
  uptake Liver: 0.14 ± 0.06 %ID/g tissue
  uptake Lung: 0.13 ± 0.05 %ID/g tissue
  uptake Muscle: 0.02 ± 0.01 %ID/g tissue
  uptake Pancreas: 0.03 ± 0.02 %ID/g tissue
  uptake Right kidney: 0.30 ± 0.02 %ID/g tissue
  uptake Spleen: 0.05 ± 0.03 %ID/g tissue
  uptake Stomach (empty): 0.22 ± 0.09 %ID/g tissue
  uptake Tumor: 0.09 ± 0.04 %ID/g tissue
[4]; preinjection of excess native folic acid, 60 min p.i.
  reduction of activity in the tumor in the blocked group: 81%
[7]
  logD7.4 Value: 0.6 ± 0.07 [18]
[8]
  fraction of tracer internalized: about 3%
  fraction of tracer receptor bound: about 7%
  fraction of tracer remained in solution: about 90%
